Measurements reported in ChEMBL document CHEMBL4680147, “Discovery of 6'-chloro-N-methyl-5'-(phenylsulfonamido)-[3,3'-bipyridine]-5-carboxamide (CHMFL-PI4K-127) as a novel Plasmodium falciparum PI(4)K inhibitor with potent antimalarial activity against both blood and liver stages of Plasmodium” (Eur J Med Chem, 2020).

Columns and labels:
[1] = Inhibition of recombinant His-tagged Plasmodium falciparum 3D7 PI4K expressed in baculovirus infected Sf9 cells using PI:PS as substrate incubated for 1 hr in presence of ATP by ADP-Glo kinase assay
[2] = tested on: Plasmodium falciparum; test: Antimalarial activity against sulphadoxine-resistant blood stage Plasmodium falciparum 3D7 infected in human O+ erythrocytes incubated for 72 hrs by SYBR Green 1 dye based fluorescence assay; format: functional, organism-based; settings: 3D7, Erythrocyte
[3] = tested on: Plasmodium falciparum; test: Antimalarial activity against pyrimethamine/chloroquine resistant Plasmodium falciparum CP286 infected in human O+ erythrocytes incubated for 72 hrs by SYBR Green 1 dye based fluorescence assay; format: functional, organism-based; settings: CP286, Erythrocyte
[4] = tested on: Plasmodium falciparum; test: Antimalarial activity against chloroquine resistant Plasmodium falciparum FAB9 infected in human O+ erythrocytes incubated for 72 hrs by SYBR Green 1 dye based fluorescence assay; format: functional, organism-based; settings: FAB9, Erythrocyte
[5] = biological target: Phosphatidylinositol 4-kinase beta (Homo sapiens, UniProt Q9UBF8); test: Inhibition of human PI4K3beta by ADP-Glo kinase assay
[6] = biological target: Phosphatidylinositol 4-phosphate 3-kinase C2 domain-containing subunit beta (Homo sapiens, UniProt O00750); test: Inhibition of human PIK3C2beta by ADP-Glo kinase assay
[7] = tested on: Plasmodium falciparum; test: Antimalarial activity against Plasmodium falciparum GB4 infected in human O+ erythrocytes incubated for 72 hrs by SYBR Green 1 dye based fluorescence assay; format: functional, organism-based; settings: GB4, Erythrocyte
[8] = tested on: Plasmodium falciparum; test: Antimalarial activity against artemisinin resistant Plasmodium falciparum 803 infected in human O+ erythrocytes incubated for 72 hrs by SYBR Green 1 dye based fluorescence assay; format: functional, organism-based; settings: Plasmodium falciparum, 803, Erythrocyte
[9] = tested on: Plasmodium falciparum; test: Antimalarial activity against chloroquine resistant Plasmodium falciparum D10 infected in human O+ erythrocytes incubated for 72 hrs by SYBR Green 1 dye based fluorescence assay; format: functional, organism-based; settings: D10, Erythrocyte
[10] = tested on: Plasmodium falciparum; test: Antimalarial activity against mefloquine/chloroquine/pyrimethamine resistant Plasmodium falciparum Dd2 infected in human O+ erythrocytes incubated for 72 hrs by SYBR Green 1 dye based fluorescence assay; format: functional, organism-based; settings: Dd2, Erythrocyte
[11] = biological target: Phosphatidylinositol 4-kinase alpha (Homo sapiens, UniProt P42356); test: Inhibition of human PI4K3alpha by ADP-Glo kinase assay
[12] = tested on: Plasmodium falciparum; test: Antimalarial activity against artemisinin and piperaquine-phosphate resistant Plasmodium falciparum 6320 infected in human O+ erythrocytes incubated for 72 hrs by SYBR Green 1 dye based fluorescence assay; format: functional, organism-based; settings: Plasmodium falciparum, 6320, Erythrocyte
[13] = biological target: Phosphatidylinositol 4,5-bisphosphate 3-kinase catalytic subunit gamma isoform (Homo sapiens, UniProt P48736); test: Inhibition of human PI3Kgamma by ADP-Glo kinase assay
[14] = biological target: Phosphatidylinositol 3-kinase catalytic subunit type 3 (Homo sapiens, UniProt Q8NEB9); test: Inhibition of human VPS34 by ADP-Glo kinase assay
[15] = biological target: T1, Phosphatidylinositol 4,5-bisphosphate 3-kinase catalytic subunit delta isoform (Homo sapiens, UniProt O00329); test: Inhibition of human PI3Kdelta by ADP-Glo kinase assay
T1 sequence (O00329 whole entry): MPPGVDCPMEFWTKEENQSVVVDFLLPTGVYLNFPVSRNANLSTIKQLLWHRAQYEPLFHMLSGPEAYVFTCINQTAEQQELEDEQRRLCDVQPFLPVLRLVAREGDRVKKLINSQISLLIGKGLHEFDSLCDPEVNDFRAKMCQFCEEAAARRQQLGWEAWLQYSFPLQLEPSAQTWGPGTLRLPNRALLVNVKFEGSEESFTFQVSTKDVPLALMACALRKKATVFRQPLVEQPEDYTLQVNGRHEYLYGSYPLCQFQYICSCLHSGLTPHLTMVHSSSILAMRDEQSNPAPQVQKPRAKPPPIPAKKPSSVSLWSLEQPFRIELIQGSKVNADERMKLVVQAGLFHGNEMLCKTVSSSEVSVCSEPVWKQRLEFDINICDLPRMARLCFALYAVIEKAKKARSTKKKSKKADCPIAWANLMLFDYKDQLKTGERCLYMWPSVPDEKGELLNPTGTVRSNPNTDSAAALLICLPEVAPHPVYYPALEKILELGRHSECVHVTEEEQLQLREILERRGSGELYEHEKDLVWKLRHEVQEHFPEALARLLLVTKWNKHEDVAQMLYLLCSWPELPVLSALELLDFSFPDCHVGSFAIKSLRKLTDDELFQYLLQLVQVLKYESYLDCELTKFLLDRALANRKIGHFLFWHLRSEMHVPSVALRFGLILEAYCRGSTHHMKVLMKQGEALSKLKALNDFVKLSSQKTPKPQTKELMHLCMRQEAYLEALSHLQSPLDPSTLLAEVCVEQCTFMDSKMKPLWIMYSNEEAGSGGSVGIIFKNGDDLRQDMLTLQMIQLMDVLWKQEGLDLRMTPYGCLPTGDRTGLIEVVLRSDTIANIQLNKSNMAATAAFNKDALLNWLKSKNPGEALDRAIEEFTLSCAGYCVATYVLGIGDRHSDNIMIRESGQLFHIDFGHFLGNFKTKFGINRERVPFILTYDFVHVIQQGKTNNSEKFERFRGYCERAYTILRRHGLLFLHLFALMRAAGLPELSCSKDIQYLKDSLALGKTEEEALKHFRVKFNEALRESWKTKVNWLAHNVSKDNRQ

[16] = Inhibition of human PIK3C2alpha by ADP-Glo kinase assay
[17] = biological target: Phosphatidylinositol 4,5-bisphosphate 3-kinase catalytic subunit beta isoform (Homo sapiens, UniProt P42338); test: Inhibition of human PI3Kbeta by ADP-Glo kinase assay
[18] = tested on: Plasmodium falciparum; test: Antimalarial activity against pyrimethamine/chloroquine resistant Plasmodium falciparum PC26 infected in human O+ erythrocytes incubated for 72 hrs by SYBR Green 1 dye based fluorescence assay; format: functional, organism-based; settings: PC26, Erythrocyte
[19] = tested on: Plasmodium falciparum; test: Antimalarial activity against pyrimethamine/chloroquine resistant Plasmodium falciparum C2A infected in human O+ erythrocytes incubated for 72 hrs by SYBR Green 1 dye based fluorescence assay; format: functional, organism-based; settings: Erythrocyte
[20] = biological target: Phosphatidylinositol 4,5-bisphosphate 3-kinase catalytic subunit alpha isoform (Homo sapiens, UniProt P42336); test: Inhibition of human PI3Kalpha by ADP-Glo kinase assay
Phosphatidylinositol 4,5-bisphosphate 3-kinase catalytic subunit alpha isoform, sequence (P42336 whole entry, canonical isoform): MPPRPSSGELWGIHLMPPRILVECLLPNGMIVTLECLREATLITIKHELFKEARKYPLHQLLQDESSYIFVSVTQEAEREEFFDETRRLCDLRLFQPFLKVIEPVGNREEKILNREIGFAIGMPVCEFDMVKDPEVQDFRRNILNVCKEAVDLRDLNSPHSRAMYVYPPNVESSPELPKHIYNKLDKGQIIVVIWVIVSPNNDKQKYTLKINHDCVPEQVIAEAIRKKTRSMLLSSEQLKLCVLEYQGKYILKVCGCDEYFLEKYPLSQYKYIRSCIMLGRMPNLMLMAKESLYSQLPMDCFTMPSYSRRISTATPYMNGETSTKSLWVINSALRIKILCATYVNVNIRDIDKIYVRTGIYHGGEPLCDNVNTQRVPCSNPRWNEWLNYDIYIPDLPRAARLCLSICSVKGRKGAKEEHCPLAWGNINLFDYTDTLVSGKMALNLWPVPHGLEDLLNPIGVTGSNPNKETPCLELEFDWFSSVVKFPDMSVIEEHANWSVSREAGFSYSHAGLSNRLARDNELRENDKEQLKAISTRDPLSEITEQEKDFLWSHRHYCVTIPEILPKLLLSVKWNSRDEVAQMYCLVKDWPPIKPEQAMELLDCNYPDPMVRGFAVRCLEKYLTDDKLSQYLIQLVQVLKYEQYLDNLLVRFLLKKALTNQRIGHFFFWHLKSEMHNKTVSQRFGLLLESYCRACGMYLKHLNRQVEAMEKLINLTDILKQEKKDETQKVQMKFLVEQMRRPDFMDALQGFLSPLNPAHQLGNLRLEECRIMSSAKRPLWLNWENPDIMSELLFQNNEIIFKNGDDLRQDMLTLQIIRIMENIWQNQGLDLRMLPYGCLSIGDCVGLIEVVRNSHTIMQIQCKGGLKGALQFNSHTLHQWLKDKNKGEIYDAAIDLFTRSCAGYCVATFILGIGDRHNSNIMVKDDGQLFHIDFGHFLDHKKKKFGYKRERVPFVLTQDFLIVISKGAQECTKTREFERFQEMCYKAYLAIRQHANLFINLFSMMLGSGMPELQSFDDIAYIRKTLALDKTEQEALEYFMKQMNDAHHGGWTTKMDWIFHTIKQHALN

Phosphatidylinositol 4,5-bisphosphate 3-kinase catalytic subunit beta isoform, sequence (P42338 whole entry, canonical isoform): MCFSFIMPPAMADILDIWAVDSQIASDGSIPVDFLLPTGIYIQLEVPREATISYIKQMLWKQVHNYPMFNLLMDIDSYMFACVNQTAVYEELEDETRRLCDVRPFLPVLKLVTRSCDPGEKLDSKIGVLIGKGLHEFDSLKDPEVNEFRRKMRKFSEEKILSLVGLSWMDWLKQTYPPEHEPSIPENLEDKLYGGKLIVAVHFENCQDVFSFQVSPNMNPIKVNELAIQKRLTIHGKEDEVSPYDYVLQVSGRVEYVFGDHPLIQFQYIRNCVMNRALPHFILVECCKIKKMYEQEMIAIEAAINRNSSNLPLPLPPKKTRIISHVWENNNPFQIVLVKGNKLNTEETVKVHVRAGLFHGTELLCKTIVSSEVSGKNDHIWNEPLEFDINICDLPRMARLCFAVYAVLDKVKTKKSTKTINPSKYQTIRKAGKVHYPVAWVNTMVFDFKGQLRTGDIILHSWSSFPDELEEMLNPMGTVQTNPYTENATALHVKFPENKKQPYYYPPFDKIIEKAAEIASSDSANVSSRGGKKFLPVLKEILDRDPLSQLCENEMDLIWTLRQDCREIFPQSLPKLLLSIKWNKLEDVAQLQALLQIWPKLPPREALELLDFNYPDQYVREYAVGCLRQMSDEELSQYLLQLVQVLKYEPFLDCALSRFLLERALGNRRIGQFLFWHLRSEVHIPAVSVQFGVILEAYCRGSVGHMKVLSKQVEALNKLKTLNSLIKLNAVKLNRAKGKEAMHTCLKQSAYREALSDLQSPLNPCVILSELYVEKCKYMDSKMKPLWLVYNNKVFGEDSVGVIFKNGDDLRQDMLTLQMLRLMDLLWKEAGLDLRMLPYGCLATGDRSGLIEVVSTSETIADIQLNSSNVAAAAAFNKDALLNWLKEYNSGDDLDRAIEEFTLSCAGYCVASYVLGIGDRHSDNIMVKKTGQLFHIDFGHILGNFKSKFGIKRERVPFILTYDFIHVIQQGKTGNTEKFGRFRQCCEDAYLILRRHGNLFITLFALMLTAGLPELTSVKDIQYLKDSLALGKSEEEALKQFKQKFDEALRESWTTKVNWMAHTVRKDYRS
Phosphatidylinositol 4-kinase beta, sequence (Q9UBF8 whole entry, the tested form may be a part): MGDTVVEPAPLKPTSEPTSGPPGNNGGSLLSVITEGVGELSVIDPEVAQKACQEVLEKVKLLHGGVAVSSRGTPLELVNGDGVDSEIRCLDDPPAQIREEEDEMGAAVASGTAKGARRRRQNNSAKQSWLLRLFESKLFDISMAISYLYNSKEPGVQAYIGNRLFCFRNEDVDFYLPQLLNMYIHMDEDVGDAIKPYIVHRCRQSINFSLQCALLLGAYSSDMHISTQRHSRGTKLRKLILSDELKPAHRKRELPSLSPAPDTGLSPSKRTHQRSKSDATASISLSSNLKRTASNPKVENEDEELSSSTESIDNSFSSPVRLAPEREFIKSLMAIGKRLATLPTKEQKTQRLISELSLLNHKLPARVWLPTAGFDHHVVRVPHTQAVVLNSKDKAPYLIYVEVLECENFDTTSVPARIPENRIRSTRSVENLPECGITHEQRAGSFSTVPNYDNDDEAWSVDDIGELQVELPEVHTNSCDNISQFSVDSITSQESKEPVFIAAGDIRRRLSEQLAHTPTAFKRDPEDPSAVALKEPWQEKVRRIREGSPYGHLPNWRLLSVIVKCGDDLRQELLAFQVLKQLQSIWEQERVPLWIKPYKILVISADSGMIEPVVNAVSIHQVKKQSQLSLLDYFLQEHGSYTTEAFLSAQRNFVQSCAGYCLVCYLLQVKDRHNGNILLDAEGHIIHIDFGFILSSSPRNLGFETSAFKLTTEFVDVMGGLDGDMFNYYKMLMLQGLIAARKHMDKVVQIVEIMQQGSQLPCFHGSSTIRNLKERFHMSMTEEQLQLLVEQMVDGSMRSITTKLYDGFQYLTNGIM
Phosphatidylinositol 4-phosphate 3-kinase C2 domain-containing subunit beta, sequence (O00750 whole entry, the tested form may be a part): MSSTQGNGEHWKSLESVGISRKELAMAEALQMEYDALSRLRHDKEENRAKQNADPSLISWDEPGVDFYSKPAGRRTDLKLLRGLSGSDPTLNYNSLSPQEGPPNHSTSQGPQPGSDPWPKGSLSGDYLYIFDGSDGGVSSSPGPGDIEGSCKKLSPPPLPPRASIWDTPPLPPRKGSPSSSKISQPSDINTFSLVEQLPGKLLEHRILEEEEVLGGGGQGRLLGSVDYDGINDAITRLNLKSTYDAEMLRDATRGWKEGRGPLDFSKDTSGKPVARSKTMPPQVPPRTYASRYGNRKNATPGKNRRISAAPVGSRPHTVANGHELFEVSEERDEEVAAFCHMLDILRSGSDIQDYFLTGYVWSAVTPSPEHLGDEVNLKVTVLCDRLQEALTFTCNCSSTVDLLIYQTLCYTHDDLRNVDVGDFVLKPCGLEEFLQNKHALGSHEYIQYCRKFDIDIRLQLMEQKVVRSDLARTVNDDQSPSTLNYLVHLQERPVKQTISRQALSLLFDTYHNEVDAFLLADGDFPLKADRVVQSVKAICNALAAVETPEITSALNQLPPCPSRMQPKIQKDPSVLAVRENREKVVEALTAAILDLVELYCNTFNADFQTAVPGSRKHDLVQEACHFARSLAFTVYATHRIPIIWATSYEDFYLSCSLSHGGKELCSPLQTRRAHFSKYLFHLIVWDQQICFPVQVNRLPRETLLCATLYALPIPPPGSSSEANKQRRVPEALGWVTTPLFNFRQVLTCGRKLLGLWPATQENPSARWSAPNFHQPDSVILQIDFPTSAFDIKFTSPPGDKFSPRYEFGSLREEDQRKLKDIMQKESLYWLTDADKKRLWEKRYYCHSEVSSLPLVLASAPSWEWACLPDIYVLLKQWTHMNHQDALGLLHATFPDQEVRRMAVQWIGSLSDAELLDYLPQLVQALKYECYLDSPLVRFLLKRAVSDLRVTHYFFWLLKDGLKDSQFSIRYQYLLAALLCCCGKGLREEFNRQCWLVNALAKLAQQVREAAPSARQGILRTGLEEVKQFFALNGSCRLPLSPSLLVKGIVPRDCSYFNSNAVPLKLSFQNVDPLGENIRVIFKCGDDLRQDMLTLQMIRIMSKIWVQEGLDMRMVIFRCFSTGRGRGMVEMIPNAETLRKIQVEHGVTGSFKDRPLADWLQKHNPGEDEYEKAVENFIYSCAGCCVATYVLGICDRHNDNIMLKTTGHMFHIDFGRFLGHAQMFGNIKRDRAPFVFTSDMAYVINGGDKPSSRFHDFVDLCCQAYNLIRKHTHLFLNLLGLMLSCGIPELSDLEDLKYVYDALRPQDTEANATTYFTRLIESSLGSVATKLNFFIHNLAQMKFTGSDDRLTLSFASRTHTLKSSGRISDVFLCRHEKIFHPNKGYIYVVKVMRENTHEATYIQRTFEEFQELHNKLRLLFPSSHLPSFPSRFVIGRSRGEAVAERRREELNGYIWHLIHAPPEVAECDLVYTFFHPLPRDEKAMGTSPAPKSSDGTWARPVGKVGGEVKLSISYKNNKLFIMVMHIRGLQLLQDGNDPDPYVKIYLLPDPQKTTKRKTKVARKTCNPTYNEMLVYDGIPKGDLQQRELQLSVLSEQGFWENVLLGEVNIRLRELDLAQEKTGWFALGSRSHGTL

Row | SMILES | IC50 [1] [nM] | EC50 [2] [nM] | other results
1 | CNC(=O)c1cncc(-c2cnc(Cl)c(NS(=O)(=O)c3ccc(-c4ccccc4)cc3)c2)c1 | 8.8 | 5880 | 
2 | O=S(=O)(Nc1cc(-c2cnc3[nH]ccc3c2)cnc1Cl)c1ccccc1 | 7.7 | 3940 | 
3 | NCCNC(=O)c1cncc(-c2cnc(Cl)c(NS(=O)(=O)c3ccccc3)c2)c1 | 13.8 | 130 | 
4 | CNC(=O)c1cncc(-c2cnc(Cl)c(NC(=O)c3ccccc3)c2)c1 | > 156 | > 10000 | 
5 | CNC(=O)c1cccc(-c2cnc(Cl)c(NS(=O)(=O)c3ccccc3)c2)c1 | > 156 | > 10000 | 
6 | CC(=O)n1ccc2cc(-c3cnc(Cl)c(NS(=O)(=O)c4ccccc4)c3)cnc21 | 8.1 | 1050 | 
7 | CCS(=O)(=O)Nc1cc(-c2cncc(C(=O)NC)c2)cnc1Cl | 52.6 | 3500 | 
8 | CNC(=O)c1cncc(-c2cnc(Cl)c(NS(=O)(=O)c3ccc(F)cc3F)c2)c1 | 0.4 | 3400 | 
9 | O=C(Nc1ccccc1)c1cncc(-c2cnc(Cl)c(NS(=O)(=O)c3ccccc3)c2)c1 | 145 | 3680 | 
10 | O=C(Nc1cccc(F)c1)c1cncc(-c2cnc(Cl)c(NS(=O)(=O)c3ccccc3)c2)c1 | > 156 | > 10000 | 
11 | CNC(=O)c1cc(-c2cnc(Cl)c(NS(=O)(=O)c3ccccc3)c2)c[nH]1 | > 156 | > 10000 | 
12 | O=C(Nc1ccc(F)cc1)c1cncc(-c2cnc(Cl)c(NS(=O)(=O)c3ccccc3)c2)c1 | > 156 | > 10000 | 
13 | CNC(=O)c1cncc(-c2cnc(Cl)c(NS(=O)(=O)c3cccc(-c4ccccc4)c3)c2)c1 | 7.5 | 7700 | 
14 | CNC(=O)c1cncc(-c2cnc(Cl)c(NS(=O)(=O)c3cccc(C(F)(F)F)c3)c2)c1 | 2.5 | 3500 | 
15 | CCCS(=O)(=O)Nc1cc(-c2cncc(C(=O)NC)c2)cnc1Cl | 13.2 | 480 | 
16 | C[C@H](CN)NC(=O)c1cncc(-c2cnc(Cl)c(NS(=O)(=O)c3ccccc3)c2)c1 | > 40 | > 10000 | 

Row | SMILES | IC50 [1] [nM] | EC50 [2] [nM] | other results
17 | CNC(=O)c1ccc(-c2cnc3cnc(C(=O)N(C)c4ccc(Cl)cc4)cn23)cc1 | 1.6 | 41.1 | EC50 [3]: 31.9 nM; EC50 [4]: 44.8 nM; IC50 [5]: > 10000 nM; IC50 [6]: > 10000 nM; EC50 [7]: 39.2 nM; EC50 [8]: 41.8 nM; EC50 [9]: 43.9 nM; EC50 [10]: 46.7 nM; IC50 [11]: 1420 nM; EC50 [12]: 33.6 nM; IC50 [13]: 5920 nM; IC50 [14]: 9200 nM; IC50 [15]: 3100 nM; IC50 [16]: > 10000 nM; IC50 [17]: 2730 nM; EC50 [18]: 54.9 nM; EC50 [19]: 33.7 nM; IC50 [20]: > 10000 nM
18 | CN(C)[C@H]1CCN(C(=O)c2cncc(-c3cnc(Cl)c(NS(=O)(=O)c4ccccc4)c3)c2)C1 | > 156 | > 10000 | 
19 | CNC(=O)c1cncc(-c2cnc(Cl)c(NS(=O)(=O)c3ccc(C)cc3)c2)c1 | 1.2 | 39 | 
20 | O=S(=O)(Nc1cc(-c2cccnc2)cnc1Cl)c1ccccc1 | 12.7 | 4710 | 
21 | O=S(=O)(Nc1cc(-c2ccncc2)cnc1Cl)c1ccccc1 | > 156 | > 10000 | 
22 | Cn1cc(-c2cnc(Cl)c(NS(=O)(=O)c3ccccc3)c2)cn1 | 10 | 1490 | 
23 | CNC(=O)c1cncc(-c2cnc(Cl)c(NS(=O)(=O)c3ccc(Cl)cc3)c2)c1 | 1.6 | 71 | 
24 | CNC(=O)c1cncc(-c2cnc(Cl)c(NS(=O)(=O)c3ccc(C)cc3C)c2)c1 | 2.2 | 39 | 
25 | CNC(=O)c1cncc(-c2cnc(Cl)c(NS(=O)(=O)c3ccc(Cl)cc3Cl)c2)c1 | 1.2 | 120 | 
26 | O=S(=O)(Nc1cc(-c2cnc3[nH]ncc3c2)cnc1Cl)c1ccccc1 | 5.6 | 4670 | 
27 | O=C(NCc1ccccc1)c1cncc(-c2cnc(Cl)c(NS(=O)(=O)c3ccccc3)c2)c1 | 8.5 | 3570 | 
28 | CNC(=O)c1cncc(-c2cnc(Cl)c(NS(=O)(=O)c3ccc(C(F)(F)F)cc3)c2)c1 | > 156 | 130 | 
29 | CNC(=O)c1cncc(-c2cnc(Cl)c(NS(=O)(=O)c3ccccc3C(F)(F)F)c2)c1 | 0.5 | 87 | 
30 | CNC(=O)c1cncc(-c2cnc(Cl)c(NS(=O)(=O)c3ccc4c(c3)CCO4)c2)c1 | 4.5 | 340 | 
31 | CNC(=O)c1cc(-c2cnc(Cl)c(NS(=O)(=O)c3ccccc3)c2)ccn1 | > 156 | > 10000 | 
32 | CCNC(=O)c1cncc(-c2cnc(Cl)c(NS(=O)(=O)c3ccccc3)c2)c1 | 2.3 | 120 | 
